Source: patent publication US20240294499A1, “TARGETED PROTEIN DEGRADATION USING BIFUNCTIONAL COMPOUNDS THAT BIND UBIQUITIN LIGASE AND TARGET MCL-1 PROTEIN” (Captor Therapeutics S.A., priority 2021, published 2024)

Columns and labels:
Format in all cases: cell-based
MCL-1 protein = MCL-1 protein (Homo sapiens, UniProt Q07820); assay: OPM-2 cells: MCL-1 protein degradation, Simple Western; set-up: endogenous in cells; host or cells: OPM-2; conditions: OPM-2 cell line, 6 h treatment, 100 nM compound, vs DMSO
Procedure, shortened: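 OPM-2 cells in RPMI-1640 with 1% FBS treated with compounds (0.5% DMSO) for 6 h at 100 nM. Lysates analysed by automated capillary Simple Western with MCL-1 D35A5 antibody; % MCL-1 reduction versus DMSO-treated cells (0%).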

iCELL Cardiomyocytes = assay: Cardiac safety: caspase 3 and 7 activation (Caspase-Glo 3/7) in iCELL Cardiomyocytes
Text: The effect of various compounds of the invention and a reference compound AZD5991 on cardiac safety was investigated by the evaluation of caspase 3 and 7 activation using Caspase-Glo 3/7 Assay (Promega; G8092) in iCELL™ Cardiomyocytes from FUJIFILM Cellular Dynamics (Catalog number: 11713). In the Caspase-Glo® 3/7 Assay, the luminescence (measured as Relative Luciferase Units, RLU) is proportional to the amount of caspase activity present in each sample.
The assay is initiated by thawing and seeding iCell® Cardiomyocytes as specified in the User Guide. After 48 hours, the cells are washed to remove unattached cells and debris and immediately treated with compounds or DMSO diluted in the maintenance medium (FCDI; cat: M1003). Compound concentrations used in this assay: 7 points 1/3 dilution curve starting at 100 uM. After 24 hours of incubation with compounds, caspase activity is measured by the addition of the Caspase-Glo® 3/7 Reagent followed by the luminescence measurement.
The analysis of the results is performed by calculation of the fold change in caspase 3/7 activity at a given compound concentration. Fold change is calculated with the formula: […]
where: • RLU Xi is the Relative Luciferase Units of sample I; • RLU BG is the Background Relative Luciferase Units; • RLU C is the Relative Luciferase Units of Control (DMSO).
The experiments were performed in technical duplicates.

MV-4-11 cells = assay: Induction of apoptosis in cancer cells, flow cytometry (Annexin V/PI); conditions: MV-4-11 cells, 1, 3, 10, 30 and 100 nM, 24 hours
Protocol: The effect of compound 204 of the invention MV-4-11 cells was investigated using the following protocol.
MV-4-11 cells were seeded on 24-well plates (1 ml) in growth medium containing 1% FBS. Immediately after seeding, compounds in appropriate concentrations were added directly to the cell culture medium. After 24 hours incubation, cells were washed twice with cold DPBS and the staining was performed using the FITC Annexin V Apoptosis Detection Kit I (BD Pharmingen; 556547). Samples were then analyzed by flow cytometry (LSR Fortessa X-20; BD Biosciences) within 1 hr. Results were evaluated using FlowJo (V10) software.
FIG. 6 presents the induction of apoptosis in MV-4-11 cells treated with 204 at 1, 3, 10, 30, and 100 nM concentration for 24 hours, as indicated.

Chain of MCL-1 protein (Q07820 whole entry): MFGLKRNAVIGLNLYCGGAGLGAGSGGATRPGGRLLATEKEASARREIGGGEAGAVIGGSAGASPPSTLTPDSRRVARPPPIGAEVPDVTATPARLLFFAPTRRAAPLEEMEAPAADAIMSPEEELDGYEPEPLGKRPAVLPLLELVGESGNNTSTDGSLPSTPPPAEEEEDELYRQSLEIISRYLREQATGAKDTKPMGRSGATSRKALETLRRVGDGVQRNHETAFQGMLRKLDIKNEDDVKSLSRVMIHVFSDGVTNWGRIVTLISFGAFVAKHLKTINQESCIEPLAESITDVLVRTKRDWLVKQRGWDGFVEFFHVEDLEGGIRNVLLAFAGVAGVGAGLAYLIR

Row | Simple Western, % of protein reduction (MCL-1 protein) [%] | SMILES | Fold change at 1.2 uM (caspase 3/7 activity in cardiomyocytes) (iCELL Cardiomyocytes; 1.2 uM, 24 hours incubation, vs DMSO) | activity in caspase activity assay in cardiomyocytes (iCELL Cardiomyocytes; as opposed to reference compound AZD5991) | population of late apoptotic/cell death (Annexin+/PI+) cells (MV-4-11 cells)
1 | ≥40 | Cc1nn(C)c(C)c1-c1c(Cl)ccc2c(CCCOc3cccc4ccccc34)c(C(=O)O)n(CCN3CCN(C(=O)COc4cccc5c4C(=O)N(C4CCC(=O)NC4=O)C5=O)CC3)c12 (centres unmarked) [Compound 204, 6-chloro-1-(2-(4-(2-((2-(2,6-dioxopiperidin-3-yl)-1,3-dioxoisoindolin-4-yl)oxy)acetyl)piperazin-1-yl)ethyl)-3-(3-(naphthalen-1-yloxy)propyl)-7-(1,3,5-trimethyl-1H-pyrazol-4-yl)-1H-indole-2-carboxylic acid] | ≤1.5 ± 0.2 | little to no activity | concentration dependent increase
2 | ≥20 | Cc1nn(C)c(C)c1-c1c(F)ccc2c(CCCOc3cccc4cc(F)ccc34)c(C(=O)O)n(CCN3CCN(C(=O)COc4cccc5c4C(=O)N(C4CCC(=O)NC4=O)C5=O)CC3)c12 (centres unmarked) [Compound 215, 1-{2-[4-(2-{[2-(2,6-dioxopiperidin-3-yl)-1,3-dioxo-2,3-dihydro-1H-isoindol-4-yl]oxy}acetyl)piperazin-1-yl]ethyl}-6-fluoro-3-{3-[(6-fluoronaphthalen-1-yl)oxy]propyl}-7-(1,3,5-trimethyl-1H-pyrazol-4-yl)-1H-indole-2-carboxylic acid] |  |  | 
